Biological target: human F508del-CFTR (Homo sapiens, UniProt P13569, DEL508-508)
Test: F508del-CFTR cell surface expression (corrector activity), DiscoveRx ß-galactosidase complementation chemiluminescence assay in recombinant U2OS cell line;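 further: U2OS cells co-expressing ProLink-tagged F508del-CFTR and a membrane-anchored enzyme acceptor, where more surface CFTR restores β-galactosidase activity measured by chemiluminescence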
Settings: for EC50: EC50, F508del-CFTR cell surface expression, U2OS cells, 16h compound incubation, geomean values; for Emax: U2OS, in relation to Emax of corrector lumacaftor (=100%), arithmetic mean values

Sequence of human F508del-CFTR (P13569 with tags, fused parts or gaps DEL508-508): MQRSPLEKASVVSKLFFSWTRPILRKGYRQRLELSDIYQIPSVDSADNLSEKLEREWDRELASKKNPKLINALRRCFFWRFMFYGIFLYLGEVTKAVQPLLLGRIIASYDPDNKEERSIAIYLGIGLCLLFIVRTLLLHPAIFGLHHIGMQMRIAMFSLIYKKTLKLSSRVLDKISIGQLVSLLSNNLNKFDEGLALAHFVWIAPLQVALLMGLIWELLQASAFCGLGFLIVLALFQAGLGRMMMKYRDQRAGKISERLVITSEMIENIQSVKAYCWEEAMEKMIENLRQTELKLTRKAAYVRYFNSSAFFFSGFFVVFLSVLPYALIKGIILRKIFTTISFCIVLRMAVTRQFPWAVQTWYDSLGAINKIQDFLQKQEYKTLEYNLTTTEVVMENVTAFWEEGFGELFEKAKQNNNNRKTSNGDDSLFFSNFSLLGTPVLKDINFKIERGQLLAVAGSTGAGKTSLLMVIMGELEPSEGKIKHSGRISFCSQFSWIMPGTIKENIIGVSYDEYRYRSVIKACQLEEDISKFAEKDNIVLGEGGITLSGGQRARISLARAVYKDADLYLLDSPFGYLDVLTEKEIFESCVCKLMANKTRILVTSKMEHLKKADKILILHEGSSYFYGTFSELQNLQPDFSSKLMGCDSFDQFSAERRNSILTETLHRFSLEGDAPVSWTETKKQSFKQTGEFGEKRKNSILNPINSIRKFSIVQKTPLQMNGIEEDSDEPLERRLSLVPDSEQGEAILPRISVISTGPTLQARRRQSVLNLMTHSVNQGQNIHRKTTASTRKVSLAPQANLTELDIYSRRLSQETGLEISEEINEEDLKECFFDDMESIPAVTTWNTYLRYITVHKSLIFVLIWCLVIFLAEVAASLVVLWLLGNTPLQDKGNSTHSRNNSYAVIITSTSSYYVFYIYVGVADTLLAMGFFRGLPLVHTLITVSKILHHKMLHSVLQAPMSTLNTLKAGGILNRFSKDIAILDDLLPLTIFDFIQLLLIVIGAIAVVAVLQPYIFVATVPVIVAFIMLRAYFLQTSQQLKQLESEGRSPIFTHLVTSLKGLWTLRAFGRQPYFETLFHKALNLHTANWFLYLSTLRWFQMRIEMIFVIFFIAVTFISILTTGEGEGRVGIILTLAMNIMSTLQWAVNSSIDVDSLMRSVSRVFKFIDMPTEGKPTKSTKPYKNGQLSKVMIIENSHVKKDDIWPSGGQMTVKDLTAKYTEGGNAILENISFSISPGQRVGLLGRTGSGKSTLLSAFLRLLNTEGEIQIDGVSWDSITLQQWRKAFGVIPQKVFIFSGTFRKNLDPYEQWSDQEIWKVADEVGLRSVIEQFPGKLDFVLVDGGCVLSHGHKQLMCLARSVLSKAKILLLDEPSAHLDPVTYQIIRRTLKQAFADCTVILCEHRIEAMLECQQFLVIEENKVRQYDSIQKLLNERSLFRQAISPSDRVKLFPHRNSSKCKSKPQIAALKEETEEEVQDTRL

| Compound | EC50 [nM] | Emax [%] |
| --- | --- | --- |
| COc1cccc(CCNC(=O)[C@@H]2CC(=O)N(C)[C@@H](CC(C)C)C(=O)N3CCN(C(C)C)C[C@@H]3C(=O)N[C@H](Cc3ccccc3)COc3cccc(OC)c3C(=O)N2)c1 [Example 611, (7S,11S,20R,22aR)-20-benzyl-7-isobutyl-2-isopropyl-14-methoxy-N-(3-methoxyphenethyl)-8-methyl-6,9,13,22-tetraoxo-1,3,4,6,7,8,9,10,11,12,13,19,20,21,22,22a-hexadecahydro-2H-benzo[p]pyrazino[2,1-f][1]oxa[4,7,10,14]tetraazacycloheptadecine-11-carboxamide] | 344 | 251 |
| COc1cccc(CCNC(=O)[C@@H]2CC(=O)N(C)[C@@H](CC(C)C)C(=O)N3CCN(CC(C)C)C[C@@H]3C(=O)N[C@H](Cc3ccccc3)COc3cccc(OC)c3C(=O)N2)c1 [Example 612, (7S,11S,20R,22aR)-20-benzyl-2,7-diisobutyl-14-methoxy-N-(3-methoxyphenethyl)-8-methyl-6,9,13,22-tetraoxo-1,3,4,6,7,8,9,10,11,12,13,19,20,21,22,22a-hexadecahydro-2H-benzo[p]pyrazino[2,1-f][1]oxa[4,7,10,14]tetraazacycloheptadecine-11-carboxamide] | 148 | 298 |
| COc1cc(CCNC(=O)[C@@H]2CC(=O)N(C)[C@@H](CC(C)C)C(=O)N3CCN(CC(C)C)C[C@@H]3C(=O)N[C@H](Cc3ccccc3)COc3ccc4ccccc4c3C(=O)N2)cc(OC)c1 [Example 613, (4aR,7R,18S,22S)-7-benzyl-N-(3,5-dimethoxyphenethyl)-3,22-diisobutyl-21-methyl-5,16,20,23-tetraoxo-2,3,4,4a,5,6,7,8,16,17,18,19,20,21,22,23-hexadecahydro-1H-naphtho[1,2-p]pyrazino[2,1-f][1]oxa[4,7,10,14]tetraazacycloheptadecine-18-carboxamide] | 82 | 312 |
| COc1cccc(CCNC(=O)[C@@H]2CC(=O)N(C)[C@@H](CC(C)C)C(=O)N3CCCC[C@@H]3C(=O)N[C@H](Cc3ccccc3)COc3ccc4nc(C)oc4c3C(=O)N2)c1 [Example 614, (8S,12S,18aR,21R)-21-benzyl-12-isobutyl-N-(3-methoxyphenethyl)-4,11-dimethyl-6,10,13,19-tetraoxo-6,7,8,9,10,11,12,13,16,17,18,18a,19,20,21,22-hexadecahydro-15H-oxazolo[4′,5′:5,6]benzo[1,2-p]pyrido[2,1-f][1]oxa[4,7,10,14]tetraazacycloheptadecine-8-carboxamide] | 484 | 317 |
| COc1cccc(CCNC(=O)[C@@H]2CC(=O)N(C)[C@@H](CC(C)C)C(=O)N3CCCC[C@H]3C(=O)N[C@H](Cc3ccccc3)COc3ccc4nc(C)oc4c3C(=O)N2)c1 [Example 615, (8S,12S,18aS,21R)-21-benzyl-12-isobutyl-N-(3-methoxyphenethyl)-4,11-dimethyl-6,10,13,19-tetraoxo-6,7,8,9,10,11,12,13,16,17,18,18a,19,20,21,22-hexadecahydro-15H-oxazolo[4′,5′:5,6]benzo[1,2-p]pyrido[2,1-f][1]oxa[4,7,10,14]tetraazacycloheptadecine-8-carboxamide] | 465 | 170 |
| CC(C)C[C@H]1C(=O)N(C)CC(=O)N[C@H](Cc2ccccc2)COc2cccc(OC(F)F)c2C(=O)N[C@H](C(=O)NCCc2ccc3c(c2)OCO3)CC(=O)N1C [Example 616, (3R,9S,13S)-N-(2-(benzo[d][1,3]dioxol-5-yl)ethyl)-3-benzyl-16-(difluoromethoxy)-9-isobutyl-7,10-dimethyl-5,8,11,15-tetraoxo-2,3,4,5,6,7,8,9,10,11,12,13,14,15-tetradecahydrobenzo[p][1]oxa[4,7,10,14]tetraazacycloheptadecine-13-carboxamide] | 581 | 92 |
| Cc1cc(CCNC(=O)[C@@H]2CC(=O)N(C)[C@@H](CC(C)C)C(=O)N3CCN(CC(C)C)C[C@@H]3C(=O)N[C@H](Cc3ccccc3)COc3ccc4ccccc4c3C(=O)N2)on1 [Example 617, (4aR,7R,18S,22S)-7-benzyl-3,22-diisobutyl-21-methyl-N-(2-(3-methylisoxazol-5-yl)ethyl)-5,16,20,23-tetraoxo-2,3,4,4a,5,6,7,8,16,17,18,19,20,21,22,23-hexadecahydro-1H-naphtho[1,2-p]pyrazino[2,1-f][1]oxa[4,7,10,14]tetraazacycloheptadecine-18-carboxamide] | 75 | 318 |
| COc1cc(CCNC(=O)[C@@H]2CC(=O)N(C)[C@@H](CC(C)C)C(=O)N3CCN(C(C)C)C[C@@H]3C(=O)N[C@H](Cc3ccccc3)COc3ccc4ccccc4c3C(=O)N2)cc(OC)c1 [Example 618, (4aR,7R,18S,22S)-7-benzyl-N-(3,5-dimethoxyphenethyl)-22-isobutyl-3-isopropyl-21-methyl-5,16,20,23-tetraoxo-2,3,4,4a,5,6,7,8,16,17,18,19,20,21,22,23-hexadecahydro-1H-naphtho[1,2-p]pyrazino[2,1-f][1]oxa[4,7,10,14]tetraazacycloheptadecine-18-carboxamide] | 80 | 309 |
| COc1cccc(CCNC(=O)[C@@H]2CC(=O)N(C)[C@@H](CC(C)C)C(=O)N3CCN(CC(C)C)C[C@@H]3C(=O)N[C@H](Cc3ccccc3)COc3ccc4nc(C)oc4c3C(=O)N2)c1 [Example 619, (8S,12S,18aR,21R)-21-benzyl-12,17-diisobutyl-N-(3-methoxyphenethyl)-4,11-dimethyl-6,10,13,19-tetraoxo-6,7,8,9,10,11,12,13,16,17,18,18a,19,20,21,22-hexadecahydro-15H-oxazolo[4′,5′:5,6]benzo[1,2-p]pyrazino[2,1-f][1]oxa[4,7,10,14]tetraazacycloheptadecine-8-carboxamide] | 155 | 322 |
| Cc1cc(CCNC(=O)[C@@H]2CC(=O)N(C)[C@@H](CC(C)C)C(=O)N3CCN(CC(C)C)C[C@@H]3C(=O)N[C@H](Cc3ccccc3)COc3ccc4nc(C)oc4c3C(=O)N2)on1 [Example 620, (8S,12S,18aR,21R)-21-benzyl-12,17-diisobutyl-4,11-dimethyl-N-(2-(3-methylisoxazol-5-yl)ethyl)-6,10,13,19-tetraoxo-6,7,8,9,10,11,12,13,16,17,18,18a,19,20,21,22-hexadecahydro-15H-oxazolo[4′,5′:5,6]benzo[1,2-p]pyrazino[2,1-f][1]oxa[4,7,10,14]tetraazacycloheptadecine-8-carboxamide] | 316 | 266 |
| Cc1cc(CCNC(=O)[C@@H]2CC(=O)N(C)[C@@H](CC(C)C)C(=O)N3CCN(CC(C)C)C[C@H]3C(=O)N[C@H](Cc3ccccc3)COc3ccc4nc(C)oc4c3C(=O)N2)on1 [Example 621, (8S,12S,18aS,21R)-21-benzyl-12,17-diisobutyl-4,11-dimethyl-N-(2-(3-methylisoxazol-5-yl)ethyl)-6,10,13,19-tetraoxo-6,7,8,9,10,11,12,13,16,17,18,18a,19,20,21,22-hexadecahydro-15H-oxazolo[4′,5′:5,6]benzo[1,2-p]pyrazino[2,1-f][1]oxa[4,7,10,14]tetraazacycloheptadecine-8-carboxamide] | 339 | 288 |
| Cc1cc(CCNC(=O)[C@@H]2CC(=O)N(C)[C@@H](CC(C)C)C(=O)N3CCN(CC(C)C)C[C@@H]3C(=O)N[C@H](Cc3ccccc3)COc3cnc4ccccc4c3C(=O)N2)on1 [Example 622, (9S,13S,19aR,22R)-22-benzyl-13,18-diisobutyl-12-methyl-N-(2-(3-methylisoxazol-5-yl)ethyl)-7,11,14,20-tetraoxo-7,8,9,10,11,12,13,14,17,18,19,19a,20,21,22,23-hexadecahydro-16H-pyrazino[2′,1′:6,7][1]oxa[4,7,10,14]tetraazacycloheptadecino[17,16-c]quinoline-9-carboxamide] | 199 | 296 |
| Cc1cc(CCNC(=O)[C@@H]2CC(=O)N(C)[C@@H](CC(C)C)C(=O)N3CCN(C(C)C)C[C@@H]3C(=O)N[C@H](Cc3ccccc3)COc3ccc4ccccc4c3C(=O)N2)on1 [Example 623, (4aR,7R,18S,22S)-7-benzyl-22-isobutyl-3-isopropyl-21-methyl-N-(2-(3-methylisoxazol-5-yl)ethyl)-5,16,20,23-tetraoxo-2,3,4,4a,5,6,7,8,16,17,18,19,20,21,22,23-hexadecahydro-1H-naphtho[1,2-p]pyrazino[2,1-f][1]oxa[4,7,10,14]tetraazacycloheptadecine-18-carboxamide] | 248 | 349 |
| Cc1nc2ccc3c(c2o1)C(=O)N[C@H](C(=O)NCCc1cccc(OC(F)F)c1)CC(=O)N(C)[C@@H](CC(C)C)C(=O)N1CCOC[C@@H]1C(=O)N[C@H](Cc1ccccc1)CO3 [Example 625] | 781 | 186 |
| CC(C)C[C@H]1C(=O)N(CCCc2ccccc2)CC(=O)N[C@H](Cc2ccccc2)COc2ccc3ccccc3c2C(=O)N[C@H](C(=O)NCCc2ccc3c(c2)OCO3)CC(=O)N1C [Example 626, (3S,7S,13R)-N-(2-(benzo[d][1,3]dioxol-5-yl)ethyl)-13-benzyl-7-isobutyl-6-methyl-1,5,8,11-tetraoxo-9-(3-phenylpropyl)-1,2,3,4,5,6,7,8,9,10,11,12,13,14-tetradecahydronaphtho[1,2-p][1]oxa[4,7,10,14]tetraazacycloheptadecine-3-carboxamide] | 163 | 253 |
| CC(C)C[C@H]1C(=O)N2CCOC[C@@H]2C(=O)N[C@H](Cc2ccccc2)COc2cnc3c(F)cccc3c2C(=O)N[C@H](C(=O)NCCc2ccc3c(c2)OCCO3)CC(=O)N1C [Example 627, (9S,13S,19aR,22R)-22-benzyl-N-(2-(2,3-dihydrobenzo[b][1,4]dioxin-6-yl)ethyl)-3-fluoro-13-isobutyl-12-methyl-7,11,14,20-tetraoxo-7,8,9,10,11,12,13,14,16,17,19,19a,20,21,22,23-hexadecahydro-[1,4]oxazino[3′,4′:6,7][1]oxa[4,7,10,14]tetraazacycloheptadecino[17,16-c]quinoline-9-carboxamide] | 786 | 395 |

From patent US20240208992A1, “MACROCYCLES AS CFTR MODULATORS” (Idorsia Pharmaceuticals Ltd, priority 2021, published 2024)
